Measured values taken from ChEMBL document CHEMBL1201862, “PubChem BioAssay data set” (2004).
Activity calls are given as the source filed them.

Legend:
[1] = biological target: Sphingosine 1-phosphate receptor 1 (Homo sapiens, UniProt P21453); test: Fluorescence-based counterscreen assay for S1P4 agonists: Cell-based dose response high throughput screening assay to identify agonists of the Sphingosine 1-Phosphate Receptor 1 (S1P1). [Related pubchem assays (depositor defined):AID1509, AID1523, AID1801, AID463107, AID463118, AID463119, AID463122, AID463123, AID463129, AID463225, AID504400, AID504460]; type: functional
[2] = biological target: Sphingosine 1-phosphate receptor 4 (Homo sapiens, UniProt O95977); test: Fluorescence dose response cell-based high throughput screening assay for agonists of the Sphingosine 1-Phosphate Receptor 4 (S1P4). [Related pubchem assays: 1509 (Primary screen.), 1523 (Confirmation screen in triplicates.)]; type: functional
Cannabinoid receptor 2 [3] = biological target: T1, Cannabinoid receptor 2 (Homo sapiens, UniProt P34972); test: SAR analysis of antagonists of the Cannabinoid Receptor 2 using an Image-Based Assay - Set 2. [Related pubchem assays (depositor defined):AID1961, AID1965]; type: functional
[4] = biological target: T2, G-protein coupled receptor 55 (Homo sapiens, UniProt Q9Y2T6); test: SAR analysis of selective Agonists of GPR55 using an Image-Based Assay - Set 2. [Related pubchem assays (depositor defined):AID1961, AID1965]; type: functional
Cannabinoid receptor 2 [5] = biological target: T1, Cannabinoid receptor 2; test: SAR analysis of agonists of the Cannabinoid Receptor 2 using an Image-Based Assay - Set 2. [Related pubchem assays (depositor defined):AID1961, AID1965]; type: functional
[6] = biological target: T3, G-protein coupled receptor 35 (Homo sapiens, UniProt Q9HC97); test: SAR analysis of Agonists of the GPR35 Receptor using an Image-Based Assay - Set 3. [Related pubchem assays (depositor defined):AID1961, AID1965]; type: functional
Cannabinoid receptor 1 [7] = biological target: T4, Cannabinoid receptor 1 (Homo sapiens, UniProt P21554); test: SAR analysis of antagonists of the Cannabinoid Receptor 1 using an Image-Based Assay - Set 3. [Related pubchem assays (depositor defined):AID1961, AID1965]; type: functional
Cannabinoid receptor 1 [8] = biological target: T4, Cannabinoid receptor 1; test: SAR analysis of agonists of the Cannabinoid Receptor 1 using an Image-Based Assay - Set 3. [Related pubchem assays (depositor defined):AID1961, AID1965]; type: functional
[9] = biological target: T3, G-protein coupled receptor 35; test: SAR analysis of Antagonists of the GPR35 Receptor using an Image-Based Assay - Set 4. [Related pubchem assays (depositor defined):[…]]; type: functional
[10] = biological target: T2, G-protein coupled receptor 55; test: inhibition of LPI-stimulated GPR55 beta-arrestin translocation – imaging, U2OS, beta-arrestin-GFP, LPI agonist, primary screen (AID 2013); type: functional;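 note: antagonist potency measured as reduced agonist-driven arrestin aggregation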
Cannabinoid receptor 1 [11] = biological target: T4, Cannabinoid receptor 1; test: SAR analysis of antagonists of the Cannabinoid Receptor 1 using an Image-Based Assay - Set 2. [Related pubchem assays (depositor defined):AID2013, AID2026]; type: functional
[12] = biological target: T3, G-protein coupled receptor 35; test: SAR analysis of Agonists of the GPR35 Receptor using an Image-Based Assay - Set 2. [Related pubchem assays (depositor defined):AID2013, AID2026]; type: functional
Cannabinoid receptor 2 [13] = biological target: T1, Cannabinoid receptor 2; test: SAR analysis of antagonists of the Cannabinoid Receptor 2 using an Image-Based Assay. [Related pubchem assays (depositor defined):AID2013, AID2026]; type: functional
Cannabinoid receptor 1 [14] = biological target: T4, Cannabinoid receptor 1; test: SAR analysis of agonists of the Cannabinoid Receptor 1 using an Image-Based Assay - Set 2. [Related pubchem assays (depositor defined):AID2013, AID2026]; type: functional
[15] = biological target: T3, G-protein coupled receptor 35; test: SAR analysis of Antagonists of the GPR35 Receptor using an Image-Based Assay - Set 3. [Related pubchem assays (depositor defined):AID2013, AID2026]; type: functional
[16] = biological target: T2, G-protein coupled receptor 55; test: blockade of LPI-induced GPR55 arrestin translocation – imaging, U2OS, beta-arrestin-GFP, LPI agonist, set 2, SAR follow-up (AID 2820); type: functional
Cannabinoid receptor 2 [17] = biological target: T1, Cannabinoid receptor 2; test: SAR analysis of agonists of the Cannabinoid Receptor 2 using an Image-Based Assay. [Related pubchem assays (depositor defined):AID2013, AID2026]; type: functional
[18] = biological target: T5, Kappa-type opioid receptor (Homo sapiens, UniProt P41145); test: SAR analysis of small molecule antagonists of the kappa opioid receptor via a luminescent beta-arrestin assay - Set 4. [Related pubchem assays (depositor defined):AID1777, AID1778, AID1785, AID1786, AID1966, AID2133, AID2136, AID2285]; type: functional
[19] = biological target: T5, Kappa-type opioid receptor; test: SAR analysis of small molecule antagonists of the kappa opioid receptor via a luminescent beta-arrestin assay - Set 5. [Related pubchem assays (depositor defined):AID1778, AID1785]; type: functional
Estrogen receptor = biological target: T6, Estrogen receptor (Homo sapiens, UniProt P03372);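 note: potency for inhibiting coactivator peptide recruitment to the receptor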
T6 sequence (P03372 whole entry): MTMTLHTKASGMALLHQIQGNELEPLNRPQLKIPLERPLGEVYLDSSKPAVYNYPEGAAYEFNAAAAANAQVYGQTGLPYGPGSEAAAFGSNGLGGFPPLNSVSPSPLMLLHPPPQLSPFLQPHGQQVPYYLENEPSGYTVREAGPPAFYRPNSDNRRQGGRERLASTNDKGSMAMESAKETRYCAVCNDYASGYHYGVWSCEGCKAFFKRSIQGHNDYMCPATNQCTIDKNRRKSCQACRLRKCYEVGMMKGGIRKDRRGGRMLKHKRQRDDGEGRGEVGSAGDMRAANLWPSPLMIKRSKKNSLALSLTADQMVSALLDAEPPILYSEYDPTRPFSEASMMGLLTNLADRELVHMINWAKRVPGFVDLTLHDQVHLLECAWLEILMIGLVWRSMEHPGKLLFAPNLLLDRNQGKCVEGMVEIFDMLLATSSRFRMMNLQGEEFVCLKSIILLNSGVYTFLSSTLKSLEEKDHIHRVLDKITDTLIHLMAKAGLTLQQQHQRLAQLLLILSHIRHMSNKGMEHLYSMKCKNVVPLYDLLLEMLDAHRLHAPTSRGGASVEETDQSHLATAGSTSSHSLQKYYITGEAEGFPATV

[20] = Trypanosoma cruzi growth suppression in host cells – NIH3T3 host cells, beta-gal luminescence, confirmation (AID 2044); type: functional, cell-based;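 note: intracellular parasites grown in NIH/3T3 mouse fibroblasts as host cells; luminescent beta-galactosidase reporter signal from transgenic T. cruzi replicating inside host cells; inhibitors lower the luminescence signal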
[21] = viability of PTEN-deleted HCT116 cells – cell-based, HCT116 PTEN knockout, dose response (AID 1047); type: functional;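 note: HCT116 colon tumor cells with PTEN knocked out; cells exposed to compound for 60 hours before readout; potency for loss of cell viability measured by luminescence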
[22] = NIH3T3 cell viability loss – ATP luminescence, mouse fibroblasts, counter-screen, dose response (AID 2010); type: functional, cell-based;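 note: cells exposed to compound for about 90 hours before reading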
[23] = viability of HCT116 lacking mutant beta-catenin – cell-based, human colon tumor, dose response (AID 1045); type: functional;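 note: HCT116 colon tumor cells with beta catenin knocked out; cells exposed to compound for 60 hours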
Coagulation factor XII = biological target: T7, Coagulation factor XII (Homo sapiens, UniProt P00748); test: Factor XIIa Dose Response Confirmation from Single Well HTS. [Related pubchem assays (depositor defined):AID701]; type: functional
T7 sequence (P00748 whole entry): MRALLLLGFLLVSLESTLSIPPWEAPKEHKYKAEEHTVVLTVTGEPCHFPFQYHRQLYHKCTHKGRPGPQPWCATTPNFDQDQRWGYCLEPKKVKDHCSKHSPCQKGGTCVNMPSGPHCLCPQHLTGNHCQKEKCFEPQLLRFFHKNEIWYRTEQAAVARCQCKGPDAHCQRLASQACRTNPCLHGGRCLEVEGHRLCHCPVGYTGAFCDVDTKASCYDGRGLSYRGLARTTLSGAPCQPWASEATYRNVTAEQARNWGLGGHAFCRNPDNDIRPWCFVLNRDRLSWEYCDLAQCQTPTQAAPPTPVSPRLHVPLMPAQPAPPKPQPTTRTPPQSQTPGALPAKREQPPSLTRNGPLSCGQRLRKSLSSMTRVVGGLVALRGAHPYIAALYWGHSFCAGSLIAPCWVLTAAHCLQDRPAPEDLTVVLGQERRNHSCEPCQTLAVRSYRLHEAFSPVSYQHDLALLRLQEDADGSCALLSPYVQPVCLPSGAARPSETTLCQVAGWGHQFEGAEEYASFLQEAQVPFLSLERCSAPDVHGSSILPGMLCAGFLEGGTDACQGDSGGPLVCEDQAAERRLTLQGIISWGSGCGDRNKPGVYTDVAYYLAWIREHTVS

[24] = biological target: T8, Carboxy-terminal domain RNA polymerase II polypeptide A small phosphatase 1 (Homo sapiens, UniProt Q9GZU7); test: CTDSP1 inhibitors, concentration-response, biochemical, absorbance readout, ultra-high-throughput screen actives (AID 540297); type: functional
T8 sequence (Q9GZU7 whole entry): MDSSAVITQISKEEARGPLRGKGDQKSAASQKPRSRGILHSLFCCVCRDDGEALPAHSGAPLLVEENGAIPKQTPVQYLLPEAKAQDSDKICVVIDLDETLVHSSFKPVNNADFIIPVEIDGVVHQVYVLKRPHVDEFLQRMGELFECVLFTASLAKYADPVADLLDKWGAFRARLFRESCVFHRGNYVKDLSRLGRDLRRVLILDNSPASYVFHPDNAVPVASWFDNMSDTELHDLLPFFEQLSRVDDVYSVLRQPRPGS

[25] = Luminescence Cell-Based Dose Retest to Confirm Inhibitors of Cancer Stem Cells. [Related pubchem assays (depositor defined):AID2717, AID2721]; type: functional; conditions: Homo sapiens
[26] = biological target: DNA damage-inducible transcript 3 protein (Mus musculus, UniProt P35639); type: functional, Cricetulus griseus
[27] = biological target: T5, Kappa-type opioid receptor; test: kappa opioid receptor activation by imaging – image-based, set 3, SAR follow-up (AID 488833); type: functional
Mu-type opioid receptor = Mu-type opioid receptor (Homo sapiens, UniProt P35372); test: SAR Analysis of Agonists of the MOR Receptor using an Image-Based Assay - Set 3. [Related pubchem assays (depositor defined):AID1777, AID1785, AID1786, AID1966, AID2133, AID2136, AID2284, AID2285, AID2352]; type: functional
[28] = biological target: Delta-type opioid receptor (Homo sapiens, UniProt P41143); test: SAR Analysis of Agonists of the DOR Receptor using an Image-Based Assay - Set 3. [Related pubchem assays (depositor defined):AID1777, AID1786]; type: functional
[29] = biological target: T5, Kappa-type opioid receptor; test: SAR analysis of small molecule agonists of the kappa opioid receptor via a luminescent beta-arrestin assay - Set 3. [Related pubchem assays (depositor defined):AID1777, AID1785, AID1786, AID1966, AID2133, AID2136, AID2284, AID2500]; type: functional
[30] = biological target: T9, E3 ubiquitin-protein ligase XIAP (Homo sapiens, UniProt P98170); test: SAR analysis of Antagonists of XIAP-Bir3 domain of IAP-family anti-apoptotic proteins. [Related pubchem assays (depositor defined):AID1018, AID1449, AID1513, AID1514, AID1638]
[31] = biological target: T9, E3 ubiquitin-protein ligase XIAP; test: SAR analysis of Antagonists of IAP-family anti-apoptotic proteins. [Related pubchem assays (depositor defined):AID1018, AID1449, AID1513, AID1514, AID1638]
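Throughout, for AC50: cells exposed to compound for roughly 70 hours or longer before luminescence read.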

T2 sequence (Q9Y2T6 whole entry): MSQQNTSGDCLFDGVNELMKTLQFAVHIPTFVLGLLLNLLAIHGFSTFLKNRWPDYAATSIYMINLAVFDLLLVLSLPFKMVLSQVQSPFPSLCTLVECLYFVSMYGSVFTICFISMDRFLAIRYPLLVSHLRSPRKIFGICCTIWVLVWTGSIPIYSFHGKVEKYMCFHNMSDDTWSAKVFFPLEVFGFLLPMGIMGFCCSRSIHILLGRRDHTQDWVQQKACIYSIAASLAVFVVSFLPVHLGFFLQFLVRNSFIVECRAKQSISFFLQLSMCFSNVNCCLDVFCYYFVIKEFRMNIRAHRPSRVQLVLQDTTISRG
T1 sequence (P34972 whole entry): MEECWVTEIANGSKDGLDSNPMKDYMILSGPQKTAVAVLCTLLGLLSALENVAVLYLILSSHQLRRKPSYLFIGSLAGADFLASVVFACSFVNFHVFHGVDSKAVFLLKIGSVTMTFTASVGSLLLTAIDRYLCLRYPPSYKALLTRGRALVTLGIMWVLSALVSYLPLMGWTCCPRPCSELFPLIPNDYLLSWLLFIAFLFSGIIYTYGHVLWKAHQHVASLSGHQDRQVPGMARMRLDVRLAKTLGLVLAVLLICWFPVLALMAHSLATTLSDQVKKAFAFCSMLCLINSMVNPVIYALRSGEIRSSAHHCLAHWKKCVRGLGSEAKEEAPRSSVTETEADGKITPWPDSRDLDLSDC
T3 sequence (Q9HC97 whole entry): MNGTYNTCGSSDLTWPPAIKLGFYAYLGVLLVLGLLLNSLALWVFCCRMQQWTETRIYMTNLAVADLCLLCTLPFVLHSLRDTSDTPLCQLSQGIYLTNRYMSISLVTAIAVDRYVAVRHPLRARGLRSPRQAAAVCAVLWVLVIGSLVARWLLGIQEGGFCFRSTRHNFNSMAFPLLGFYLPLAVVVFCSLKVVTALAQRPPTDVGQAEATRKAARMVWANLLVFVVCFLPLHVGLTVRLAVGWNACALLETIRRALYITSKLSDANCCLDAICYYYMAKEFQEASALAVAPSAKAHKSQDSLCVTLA
T5 sequence (P41145 whole entry): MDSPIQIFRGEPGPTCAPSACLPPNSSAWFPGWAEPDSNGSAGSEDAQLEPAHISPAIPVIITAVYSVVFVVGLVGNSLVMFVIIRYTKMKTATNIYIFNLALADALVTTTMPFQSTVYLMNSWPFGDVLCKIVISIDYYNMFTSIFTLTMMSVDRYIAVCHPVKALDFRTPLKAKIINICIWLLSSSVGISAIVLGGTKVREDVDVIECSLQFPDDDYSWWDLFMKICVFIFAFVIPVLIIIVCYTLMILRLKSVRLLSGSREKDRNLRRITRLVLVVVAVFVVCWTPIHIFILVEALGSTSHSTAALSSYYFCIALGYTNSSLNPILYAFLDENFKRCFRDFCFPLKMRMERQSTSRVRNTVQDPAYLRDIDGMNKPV
T4 sequence (P21554 whole entry): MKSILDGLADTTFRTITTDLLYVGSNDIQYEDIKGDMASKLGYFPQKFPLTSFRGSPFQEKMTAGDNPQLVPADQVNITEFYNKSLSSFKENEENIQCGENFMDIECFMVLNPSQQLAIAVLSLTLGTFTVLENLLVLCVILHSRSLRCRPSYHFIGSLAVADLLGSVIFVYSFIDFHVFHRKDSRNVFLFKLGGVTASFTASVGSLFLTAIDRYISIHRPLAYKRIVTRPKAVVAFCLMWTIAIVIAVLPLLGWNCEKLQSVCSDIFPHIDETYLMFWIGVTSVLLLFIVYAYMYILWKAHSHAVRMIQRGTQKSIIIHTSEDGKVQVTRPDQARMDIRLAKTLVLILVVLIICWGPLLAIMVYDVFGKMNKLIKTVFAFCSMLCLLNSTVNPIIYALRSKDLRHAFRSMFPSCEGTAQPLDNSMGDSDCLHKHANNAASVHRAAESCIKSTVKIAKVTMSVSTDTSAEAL
T9 sequence (P98170 whole entry, the tested form may be a part): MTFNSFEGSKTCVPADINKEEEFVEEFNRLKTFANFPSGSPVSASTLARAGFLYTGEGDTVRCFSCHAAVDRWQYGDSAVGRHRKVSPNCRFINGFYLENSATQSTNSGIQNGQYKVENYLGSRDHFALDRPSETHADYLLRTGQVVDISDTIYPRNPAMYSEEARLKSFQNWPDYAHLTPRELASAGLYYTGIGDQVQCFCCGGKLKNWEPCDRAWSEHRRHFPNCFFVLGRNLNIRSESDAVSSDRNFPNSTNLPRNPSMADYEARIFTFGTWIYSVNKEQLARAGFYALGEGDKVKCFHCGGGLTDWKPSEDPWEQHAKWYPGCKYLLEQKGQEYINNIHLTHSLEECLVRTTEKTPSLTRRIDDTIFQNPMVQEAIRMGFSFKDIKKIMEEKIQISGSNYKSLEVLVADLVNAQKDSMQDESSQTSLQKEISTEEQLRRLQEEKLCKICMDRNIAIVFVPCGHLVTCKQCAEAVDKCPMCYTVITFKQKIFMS
Chain of DNA damage-inducible transcript 3 protein (P35639 whole entry): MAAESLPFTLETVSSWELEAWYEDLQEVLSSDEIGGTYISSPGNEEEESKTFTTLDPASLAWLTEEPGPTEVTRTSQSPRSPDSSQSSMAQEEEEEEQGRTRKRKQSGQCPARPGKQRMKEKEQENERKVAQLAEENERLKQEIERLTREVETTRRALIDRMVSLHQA
Chain of Mu-type opioid receptor (P35372 whole entry): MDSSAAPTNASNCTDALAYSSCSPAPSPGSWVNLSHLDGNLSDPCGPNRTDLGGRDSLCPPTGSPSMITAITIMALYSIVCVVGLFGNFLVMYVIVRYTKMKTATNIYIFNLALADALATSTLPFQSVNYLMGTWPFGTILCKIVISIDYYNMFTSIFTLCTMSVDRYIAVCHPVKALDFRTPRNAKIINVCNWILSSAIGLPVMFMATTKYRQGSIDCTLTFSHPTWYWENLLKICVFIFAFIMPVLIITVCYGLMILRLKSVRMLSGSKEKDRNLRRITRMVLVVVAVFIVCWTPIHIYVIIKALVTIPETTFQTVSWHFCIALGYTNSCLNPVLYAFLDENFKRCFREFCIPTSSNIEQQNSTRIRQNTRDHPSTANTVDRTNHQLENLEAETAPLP
Chain of Delta-type opioid receptor (P41143 whole entry): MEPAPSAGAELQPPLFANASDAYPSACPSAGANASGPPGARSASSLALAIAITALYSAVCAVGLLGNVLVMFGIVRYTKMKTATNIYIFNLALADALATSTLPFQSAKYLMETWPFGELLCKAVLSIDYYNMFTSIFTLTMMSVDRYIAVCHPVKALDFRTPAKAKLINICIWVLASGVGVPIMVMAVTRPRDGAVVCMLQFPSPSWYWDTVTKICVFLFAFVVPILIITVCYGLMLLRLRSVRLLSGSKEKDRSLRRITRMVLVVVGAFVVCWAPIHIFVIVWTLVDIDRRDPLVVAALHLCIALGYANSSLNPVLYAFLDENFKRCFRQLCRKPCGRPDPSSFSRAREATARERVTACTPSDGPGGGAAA
Chain of Sphingosine 1-phosphate receptor 4 (O95977 whole entry): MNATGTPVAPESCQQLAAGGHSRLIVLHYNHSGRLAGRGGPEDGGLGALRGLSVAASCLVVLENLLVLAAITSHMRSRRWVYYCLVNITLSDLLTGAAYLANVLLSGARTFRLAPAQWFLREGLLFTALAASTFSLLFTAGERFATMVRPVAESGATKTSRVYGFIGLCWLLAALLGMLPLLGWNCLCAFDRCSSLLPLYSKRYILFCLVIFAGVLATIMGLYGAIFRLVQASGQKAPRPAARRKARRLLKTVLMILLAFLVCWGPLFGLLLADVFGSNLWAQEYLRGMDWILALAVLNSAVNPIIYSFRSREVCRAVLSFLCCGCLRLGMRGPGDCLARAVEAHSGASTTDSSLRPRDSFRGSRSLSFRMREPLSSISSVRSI
Chain of Sphingosine 1-phosphate receptor 1 (P21453 whole entry): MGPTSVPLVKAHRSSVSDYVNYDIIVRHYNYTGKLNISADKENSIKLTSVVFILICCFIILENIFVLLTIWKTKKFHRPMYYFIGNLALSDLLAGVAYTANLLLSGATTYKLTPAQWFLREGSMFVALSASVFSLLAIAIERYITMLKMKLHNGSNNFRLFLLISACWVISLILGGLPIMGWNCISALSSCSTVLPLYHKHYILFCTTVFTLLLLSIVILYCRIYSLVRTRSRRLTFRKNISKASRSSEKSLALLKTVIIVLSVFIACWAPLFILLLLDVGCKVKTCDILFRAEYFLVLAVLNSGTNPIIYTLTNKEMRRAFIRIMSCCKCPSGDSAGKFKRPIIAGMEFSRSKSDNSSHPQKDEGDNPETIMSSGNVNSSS

## CC(C)c1cc(C(=O)OCC(=O)NC(=O)NCc2ccco2)c(O)c(C(C)C)c1
[1]
  EC50: > 49.8 µM (inactive)
[2]
  EC50: > 49.8 µM (not active)

## CCN(CC)S(=O)(=O)c1ccc(N2CCC(C)CC2)c(C(=O)N2CCN(c3ccccc3)CC2)c1
Cannabinoid receptor 2 [3]
  IC50: > 32 µM (inactive)
[4]
  EC50: > 32 µM (inactive)
Cannabinoid receptor 2 [5]
  EC50: > 32 µM (inactive)
[6]
  EC50: > 32 µM (inactive)
Cannabinoid receptor 1 [7]
  IC50: > 32 µM (inactive)
Cannabinoid receptor 1 [8]
  EC50: > 32 µM (inactive)
[9]
  IC50: > 32 µM (inactive)

## Cc1cccc(-c2cc(C(=O)Nc3sc(C)c(C)c3C(N)=O)c3ccccc3n2)c1
[10]
  IC50: 0.869 µM (active)
Cannabinoid receptor 1 [11]
  IC50: 24.1 µM (inactive)
[12]
  EC50: > 32 µM (inactive)
Cannabinoid receptor 2 [13]
  IC50: > 32 µM (inactive)
Cannabinoid receptor 1 [14]
  EC50: > 32 µM (inactive)
[15]
  IC50: > 32 µM (inactive)
[16]
  IC50: 1.44 µM (active)
Cannabinoid receptor 2 [17]
  EC50: > 32 µM (inactive)

## Cc1ccc(S(=O)(=O)NCc2cccc(C(=O)NCCN(Cc3ccccc3)C(C)C)c2)cc1
[18]
  IC50: > 20 µM (inactive)
[19]
  IC50: > 20 µM (inactive)

## Cc1ccc2[nH]c(/C(C#N)=C\c3ccc(N4CCCCC4)c([N+](=O)[O-])c3)nc2c1
Estrogen receptor
  IC50: 4.23 µM (active)
[20]
  EC50: 2 µM (active)
[21]
  EC50: 19.4 µM (active)
[22]
  EC50: > 60 µM (inconclusive)
[23]
  EC50: 22 µM (active)
Coagulation factor XII
  IC50: 1.02 µM (active)
[24]
  IC50: 2.45 µM (active)

## Cc1ccc(COc2ccc(Br)cc2/C=N/O)cc1
[25]
  AC50: 6.11 µM (active)
[26]
  Absolute IC50 (CHOP): 10 µM

## Fc1ccc(CSc2nnc(-c3ccccn3)n2Cc2cccs2)c(F)c1F
[27]
  EC50: 1.73 µM (active)
Mu-type opioid receptor
  EC50: > 32 µM (inactive)
[28]
  EC50: > 32 µM (inactive)
[29]
  EC50: 3.04 µM (active)

## CN[C@@H](C)C(=O)N[C@H](C(=O)N1CCC[C@H]1C(=O)Nc1ccc2ncccc2c1)C(C)C
[30]
  IC50: 94.9 µM (active)
[31]
  IC50: 11.4 µM (active)
